Where two headings read alike, the source gives them in different places.
Legend:
[1] = mass balance study with [14C]vibegron; conditions: 2 and 4 hr
[2] = drug interaction of vibegron and metoprolol succinate (CYP2D6 substrate); assay type: in vivo, human
[3] = tested on: men and women with OAB; assay: Phase 2b study in OAB: efficacy (voiding diary); assay type: in vivo, human; conditions: tolterodine ER 4 mg QD
Description: Part 2 was designed to continue to assess the safety and efficacy of concomitant dosing. […] Subjects in both Part 1 and Part 2 had the option of enrolling in a 1-year extension. Participants were required to keep a voiding diary, recording the occurrence of each strong urge, total incontinence, and urge incontinence episode. Efficacy data for Part 1 and Part 2 are summarized herein.
The total number of urgency incontinence episodes must have exceeded the total number of stress incontinence episodes for all subjects.
Conversely, a dose dependent effect on urge incontinence or total incontinence was not observed.

[4] = tested on: patients with overactive bladder
Description: A placebo group was included in the main study, and a group that received tolterodine monotherapy was included in the main study and in the extension.

[5] = tested on: patients with OAB; assay: Phase 2b study: cardiovascular safety, orthostatic AEs, blood pressure and heart rate changes (Table 17); assay type: in vivo, human; conditions: tolterodine 4 mg
Description: None led to discontinuation. The overall incidence of orthostatic symptoms was low.
Small differences in the percent of subjects exceeding categorical heart rate and blood pressure thresholds for vibegron were similar to those in the tolterodine arm.

[6] = tested on: men and women with overactive bladder; assay: Phase 3 study vibegron 75 mg vs placebo and tolterodine, 12 weeks, OAB: efficacy (Tables 21-25); assay type: in vivo, human; conditions: for Micturitions: Week 12 CFB Mean / Urgency Episodes: Week 12 CFB Mean / UUI: Week 12 CFB Mean: descriptive statistics; for UUI: Week 12 CFB Mean: daily UUI episodes
Procedure: Enrollment of patients included individuals with OAB Wet (those with UUI, the involuntary loss of urine accompanied by urgency) and OAB Dry (those without UUI). A total of 1,518 patients were randomized across 215 study sites into one of three groups for a 12-week treatment period.
The study consisted of a Screening Period (1 to 5 weeks), a single-blind Run-in Period (2 weeks), a randomized double-blind Treatment Period (12 weeks), and a Follow-up Period (4 weeks).
Tolterodine ER 4 mg was the active control. […] Between the Baseline and Week 12 Visits, patients had study assessments at Week 4 and Week 8.
For the analysis of the co-primary endpoints (change from baseline in average number of daily micturitions at Week 12 and change from baseline in average number of daily urge urinary incontinence episodes at Week 12, and placebo adjustment of each), a mixed model for repeated measure (MMRM) with restricted maximum likelihood estimation was used. This model corrects for dropout and accounts for the fact that measurements taken on the same patient over time tend to be correlated by using all available information on patients within the same covariate set to derive an estimate of the treatment effect for a dropout-free population. The analysis model for each efficacy endpoint includes terms for treatment, visit, OAB Type (Wet vs Dry), Sex (Female vs Male), Region (US vs Rest of World), baseline score, and interaction of visit by treatment.
Primary inferences were drawn from treatment differences for the changes from baseline derived from the MMRM models at Week 12. As part of secondary objectives, the treatment differences for each post baseline visit were also derived using the same MMRM model.
An unstructured covariance matrix was used to model the correlation among repeated measurements. The Kenward-Roger adjustment was used with restricted (or residual) maximum likelihood (REML) to make statistical inference. If the unstructured covariance model fails to converge with the default Newton-Raphson algorithm, the Fisher scoring algorithm or other appropriate methods can be used to provide initial values of the covariance parameters. In the rare event that none of the above methods yield convergence, a structured covariance would be used to model the correlation among repeated measurements.
The change from baseline efficacy endpoints was analyzed using the same MMRM model described for co-primary endpoints.
Analysis of the efficacy endpoints of proportion of patients with at least 75% reduction in the average number of daily UUI episodes at Week 12 and proportion of patients with 50% reduction in the average number of daily urgency episodes at Week 12 was analyzed using the Cochran-Mantel-Haenszel risk difference estimate. Missing Week 12 data was analyzed using multiple imputation. The estimated difference in the proportion of responders and 95% confidence interval for the difference was calculated using the Cochran-Mantel-Haenszel risk difference estimate stratified by OAB Type (Wet vs Dry) and Sex (Female vs Male), with weights proposed by Greenland and Robins.
The same statistical methods that were used to analyze the co-primary and secondary efficacy endpoints were used for the exploratory analyses. Exploratory responder analyses were analyzed using the same Cochran-Mantel-Haenszel model as described above for secondary endpoints.

[7] = tested on: men and women with overactive bladder; assay: Phase 3 study vibegron 75 mg: post-void residual urine volume (Tables 26-28); assay type: in vivo, human
Description: The risk of acute urinary retention or morbidities related to an increase in Post-Void Residual (PVR) is a concern with antimuscarinic therapy that promotes smooth muscle relaxation by inhibiting acetylcholine-induced smooth muscle contraction. If, during contraction, the bladder cannot generate enough pressure to overcome the outlet resistance in the urethra, either because of poor detrusor contractility or profound obstruction (most commonly from BPH), acute urinary retention or incomplete emptying of the bladder may result.
The volume of urine that remains in the bladder after voiding (PVR) is an objective measurement that may serve as a proxy for impaired ability to void.
PVR were performed via ultrasound at the visits indicated in the Schedule of Activities.
In addition, the data on the Post Void Residual Urine Volume (PVR) in all males and males with a medical history of BPH is shown in Tables 26 and 27, respectively.

[8] = metoprolol 100 mg, vibegron 75 mg
[9] = counts based on 3 consecutive post-baseline visits
[10] = Week 12, co-primary endpoint, once-daily vibegron 75 mg or tolterodine
[11] = Week 12, key secondary endpoint, once-daily vibegron 75 mg or tolterodine
[12] = Males with medical history of BPH
[13] = all males, vibegron 75 mg or tolterodine ER 4 mg QD

O=C(O)C1OC(OC(c2ccccc2)C2CCC(Cc3ccc(NC(=O)C4CCc5nccc(=O)n54)cc3)N2)C(O)C(O)C1O (stereo not shown) [M7]
share of total circulating drug-related material in human plasma [1]: 12-14%

COCCc1ccc(OCC(O)CNC(C)C)cc1 (stereo not shown) [Metoprolol, metoprolol succinate]
AUC0-∞ ratio of GLS mean, metoprolol + vibegron/metoprolol alone [2, 8]: 1.40 | Cmax ratio of GLS mean, metoprolol + vibegron/metoprolol alone [2, 8]: 1.49 | geometric mean Cmax and AUC in the presence of vibegron ([2]; metoprolol succinate 100 mg, vibegron 75 mg QD): increased slightly

Cc1ccc(O)c([C@H](CCN(C(C)C)C(C)C)c2ccccc2)c1 [Tolterodine ER, tolterodine]
Micturitions difference from placebo in LS means, Week 8 [3]: −0.54 | Urgency Episodes difference from placebo in LS means, Week 8 [3]: −0.94 | Total Incontinence Episodes difference from placebo in LS means, Week 8 ([3]; OAB Wet): −0.34 | Urgency Incontinence Episodes difference from placebo in LS means, Week 8 ([3]; OAB Wet): −0.46 | Accidental overdose ([4]; ER 4 mg QD): 6 (2.3) n (%) | Alanine aminotransferase increased ([4]; ER 4 mg QD): 1 (0.4) n (%) | Arthralgia ([4]; ER 4 mg QD): 3 (1.2) n (%) | Aspartate aminotransferase increased ([4]; ER 4 mg QD): 0 (0.0) n (%) | Constipation ([4]; ER 4 mg QD): 5 (1.9) n (%) | Diarrhea ([4]; ER 4 mg QD): 9 (3.5) n (%) | Discontinuation due to AE ([4]; ER 4 mg QD): 4 (1.6) n (%) | Discontinuation due to drug-related AE ([4]; ER 4 mg QD): 0 n (%) | Dizziness ([4]; ER 4 mg QD): 5 (1.9) n (%) | Drug-related AE ([4]; ER 4 mg QD): 42 (16.3) n (%) | Dry eye ([4]; ER 4 mg QD): 10 (3.9) n (%) | Dry mouth ([4]; ER 4 mg QD): 22 (8.6) n (%) | Dysuria ([4]; ER 4 mg QD): 3 (1.2) n (%) | Fatigue ([4]; ER 4 mg QD): 6 (2.3) n (%) | Headache ([4]; ER 4 mg QD): 9 (3.5) n (%) | Nasopharyngitis ([4]; ER 4 mg QD): 4 (1.6) n (%) | Nausea ([4]; ER 4 mg QD): 6 (2.3) n (%) | Osteoarthritis ([4]; ER 4 mg QD): 0 (0.0) n (%) | Pain in extremity ([4]; ER 4 mg QD): 1 (0.4) n (%) | Serious AE ([4]; ER 4 mg QD): 3 (1.2) n (%) | Sinusitis ([4]; ER 4 mg QD): 1 (0.4) n (%) | Urinary tract infection ([4]; ER 4 mg QD): 12 (4.7) n (%) | ≥1 AE ([4]; ER 4 mg QD): 116 (45.1) n (%) | Serious AE ([4]; ER 4 mg QD, listed as tolterodine): 3 n (%) | frequency of injuries ([4]; Phase 2, tolterodine arm vs vibegron): 2.1% | DBP Change from Baseline [≥] 5 mm Hg, n/N (%) [5, 9]: 30/242 (12.4) % | DBP Change from Baseline [≥] 10 mm Hg, n/N (%) [5, 9]: 13/242 (5.4) % | DBP Change from Baseline ≥15 mm Hg, n/N (%) [5, 9]: 3/242 (1.2) % | HR Change from Baseline [≥] 5 mm Hg, n/N (%) [5, 9]: 29/242 (12.0) % | HR Change from Baseline [≥] 10 bpm, n/N (%) [5, 9]: 11/242 (4.5) % | HR Change from Baseline ≥15 bpm, n/N (%) [5, 9]: 4/242 (1.7) % | SBP Change from Baseline [≥] 5 mm Hg, n/N (%) [5, 9]: 41/242 (16.9) % | SBP Change from Baseline [≥] 10 mm Hg, n/N (%) [5, 9]: 19/242 (7.9) % | SBP Change from Baseline ≥15 mm Hg, n/N (%) [5, 9]: 7/242 (2.9) % | DBP Change from Baseline, Mean (95% CI) Max ([5]; mean maximum from week 1 to 8): 5.19 (4.26, 6.13) mm Hg | HR Change from Baseline, Mean (95% CI) Maximum ([5]; mean maximum from week 1 to 8): 5.66 (4.69, 6.63) bpm | SBP Change from Baseline, Mean (95% CI) Maximum ([5]; mean maximum from week 1 to 8): 7.29 (6.01, 8.57) mm Hg | DBP Change from Baseline, Mean (95% CI) (week 1) ([5]; week 1): −0.12 (−1.10, 0.86) mm Hg | HR Change from Baseline, Mean (95% CI) (week 1) ([5]; week 1): 0.68 (−0.31, 1.67) bpm | SBP Change from Baseline, Mean (95% CI) (week 1) ([5]; week 1): 0.04 (−1.36, 1.43) mm Hg | Micturitions: Week 12 CFB Mean ([6]; Males with BPH): −1.25 | Urgency Episodes: Week 12 CFB Mean ([6]; Males with BPH): −3.29 | UUI: Week 12 CFB Mean ([6]; Males with BPH): −2.15 | Micturitions: Week 12 CFB Mean ([6]; Males without BPH): −1.29 | Urgency Episodes: Week 12 CFB Mean ([6]; Males without BPH): −2.32 | UUI: Week 12 CFB Mean ([6]; Males without BPH): −2.05 | Micturitions: Week 12 CFB Mean ([6]; Overall for Males): −1.28 | Micturitions: Week 12 CFB Mean ([6]; Overall): −1.78 | Urgency Episodes: Week 12 CFB Mean ([6]; Overall): −2.57 | UUI: Week 12 CFB Mean ([6]; Overall): −1.75 | Micturitions, Week 12 LS Mean Change from Baseline (Placebo-Adjusted) [6, 10]: −0.3 | UUI Episodes, Week 12 LS Mean Change from Baseline (Placebo-Adjusted) [6, 10]: −0.4 | OAB-q Coping Score, Week 12 LS Mean Change from Baseline (Placebo-Adjusted) [6, 11]: 3.1 | Total Incontinence Episodes, Week 12 LS Mean Change from Baseline (Placebo-Adjusted) [6, 11]: −0.5 | Urgency Episodes, Week 12 LS Mean Change from Baseline (Placebo-Adjusted) [6, 11]: −0.4 | Volume Voided, Week 12 LS Mean Change from Baseline (Placebo-Adjusted) [6, 11]: 13.3 mL | PVR Categories at Week 12: <100 mL [7, 12]: 71.4% | PVR Categories at Week 12: ≥100 mL to <200 mL [7, 12]: 28.6% | PVR Categories at Week 12: ≥200 mL to <350 mL [7, 12]: 0% | PVR Categories at Week 12: ≥350 mL [7, 12]: 0% | PVR Mean Change from Baseline at Week 12 (SD) [7, 12]: 3.7 (50.64) mL | PVR Mean Change from Baseline at Week 12 (SD) [7, 13]: 10.2 (44.24) mL | PVR category <100 mL at Week 12 [7, 13]: 85.2% | PVR category ≥100 mL to <200 mL at Week 12 [7, 13]: 11.5% | PVR category ≥200 mL to <350 mL at Week 12 [7, 13]: 3.3% | PVR category ≥350 mL at Week 12 [7, 13]: 0 | PVR Categories at Week 12: <100 mL ([7]; study population as a whole): 86.5% | PVR Categories at Week 12: ≥100 mL to <200 mL ([7]; study population as a whole): 5.8% | PVR Categories at Week 12: ≥200 mL to <350 mL ([7]; study population as a whole): 0.7% | PVR Categories at Week 12: ≥350 mL ([7]; study population as a whole): 0% | PVR Mean Change from Baseline at Week 12 (SD) ([7]; study population as a whole): 3.1 (40.93) mL
